Experimental data: paper PMC11790914, “Chemogenomics for steroid hormone receptors (NR3)” (Communications Chemistry, 2025)
Where “and” joins values, the source holds several entries; their conditions need not be identical. Identical values can stand only once. Entries after “also recorded” stand apart in the source; their conditions may differ. Like-named read-outs stand apart in the source and are kept apart here.

Assays:
[1] = cited from earlier work; for Reason for exclusion: number of annotated off-targets: other targets with annotated bioactivities at ≤10 µM in previously published dataset; for NR off-target at recom. conc.: known NR off-target at the recommended concentration; for NR off-target at recom. conc. / Other off-target at recom. conc.: ref Supplementary Table 1 (superscript references); for Other off-target at recom. conc.: known off-target outside the NR family at the recommended concentration
[2] = test system: HEK293T cells; test: Evaluation of cytotoxicity (overall: growth-rate, metabolic activity, apoptosis, necrosis); type: cell-based; details: 24 h; for effects on growth-rate, metabolic activity and necrosis: HEK293T, budesonide (3 µM), others at tested concentration
Method: The selection of 40 CG candidates was acquired from commercial vendors (purity ≥95%) and applied to initial toxicity screening. Cytotoxicity was determined in HEK293T cells considering growth-rate, metabolic activity as well as apoptosis and/or necrosis induction to evaluate suitability of the compounds for CG application in cellular settings (Fig. 3a–d, Supplementary Fig. 1, Supplementary Data 1). The candidates were generally well tolerated at concentrations >>EC50/IC50 that we recommend for CG application with only four compounds showing mild toxic effects. […] In terms of cytotoxicity, all candidates thus appeared suitable for inclusion in an NR3 CG set.

[3] = test system: HEK293T cells; test: Cytotoxicity: metabolic activity (WST-8 / CCK-8 assay); details: single replicates
Method: Cells were incubated with the test compounds at the indicated concentrations solubilized with 0.1% DMSO for 24 h. Growth-rate was determined based on the change in confluence over 24 h normalized to the change in confluence of cells treated with the 0.1% DMSO control (n = 10). Metabolic activity was determined with a water-soluble tetrazolium-8 (WST-8) assay (n = 8) after 24 h treatment. Apoptotic cells were detected with a fluorogenic DNA dye coupled to the caspase-3/7 recognition sequence (DEVD) after 24 h treatment and the apoptotic cell count was normalized to 0.1% DMSO treated cells (n = 6).
HEK293T cells (German Collection of Microorganisms and Cell Culture GmbH, DSMZ; #ACC305) were cultured in DMEM high glucose, supplemented with 10% fetal calf serum (FCS), sodium pyruvate (1 mM), penicillin (100 µ/mL) and streptomycin (100 µg/mL) at 37 °C and 5% (v/v) CO2, and seeded in pre-coated (10 µg/mL collagen G solution (Merck KgaA; #L7213) for 30 min at 37 °C) 96-well plates (2 × 10^5 cells per well). After 24 h, the cells were treated with the respective NR3 CG compound candidate at the recommended concentration, bexarotene (100 µM) or doxorubicin (30 µM) as positive controls in DMEM high glucose supplemented with 0.1% FCS, penicillin (100 µ/mL), streptomycin (100 µg/mL) and 0.1% DMSO, or 0.1% DMSO alone as an untreated control. Each sample was prepared in at least four biologically independent replicates. […] Thereafter, the medium was aspirated and the cells were incubated for 3 h with 90 µL DMEM high glucose supplemented with 0.2% FCS, penicillin (100 µ/mL) and streptomycin (100 µg/mL) and additionally containing 10 µL Cell Counting Kit 8 solution (CCK-8; MedChemExpress, Monmouth Junction, New York, USA; #HY-K0301), and absorbance was measured at 1 h, 2 h and 3 h of incubation at 450 nm on a Tecan Spark Cyto to assess metabolic activity of the cells. Before drug administration, after the first medium exchange, 24 h after drug administration, and after fluorescence imaging cell confluence was assessed using the Tecan Spark Cyto, to account for changes in cell confluence due to drug administration and cell handling. Compound effects on cell confluence, apoptosis, metabolic activity and necrosis were normalized to the vehicle control of each biological replicate individually.

[4] = test system: ATF6 activity in Hela ATF6 reporter cells; test: Endoplasmic reticulum stress assay (ATF6 Renilla luciferase reporter, tunicamycin); type: cell-based; details: for ATF6 activity (tunicamycin-induced endoplasmic reticulum stress): Hela ATF6 reporter cells, tunicamycin 100 ng/mL, 18 h; for activity at 0.3 µM / activity at 3 µM / activity at 1 µM: Homo sapiens, HeLa, single replicates n=1 to n=5, read-out: ER stress [rel. ATF6 activity]
How it was run: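 HeLa ATF6 Renilla reporter cells were pretreated 4 h with compounds in 0.1% DMSO, then stimulated with tunicamycin (100 ng/mL) for 18 h. Renilla luminescence (DualGlo) was normalized to 0.1% DMSO control; five independent experiments.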

[5] = test system: NR3A1 (ERα); details: cited from earlier work; for IC50: read-out: Potency [nM] IC50, NR3A1 (ERα)
[6] = molecular target: T1, NR1H3 (LXRα) (Homo sapiens, UniProt Q13133); test: Gal4 hybrid reporter gene assay LXRα; type: cell-based; details: n=3
T1 construct: expressed in transfected cells; host or cells: HEK293T
T1 sequence (Q13133 209-447 limits assumed): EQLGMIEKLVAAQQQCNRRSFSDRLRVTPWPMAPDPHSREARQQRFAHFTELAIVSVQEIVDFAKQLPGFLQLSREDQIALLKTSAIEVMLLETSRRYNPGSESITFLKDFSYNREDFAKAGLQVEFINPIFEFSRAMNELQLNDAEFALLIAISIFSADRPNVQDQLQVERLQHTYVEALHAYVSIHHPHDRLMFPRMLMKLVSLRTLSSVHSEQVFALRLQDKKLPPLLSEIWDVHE
Method: (§1) Reference ligands are listed in the methods section.
(§2) HEK293T cells (ATCC, Manassas, Virgina, USA; #CRL-3216) were cultured to a maximal confluence of 70–80% in DMEM, high glucose, supplemented with 10% FCS, sodium pyruvate (1 mM), penicillin (100 U/mL), and streptomycin (100 μg/mL) at 37 °C and 5% CO2 (v/v), and seeded in clear 96-well plates (4 × 10^4 cells per well). After 20–24 h, medium was changed to Opti-MEM without supplements and the cells were transiently transfected using Lipofectamine™ LTX/Plus™ Reagents (Invitrogen, Carlsbad, California, USA; #15338100) according to the manufacturer’s protocol with pFR-Luc (reporter gene; Stratagene, Agilent Technologies, Santa Clara, California, USA; #219050), pRL-SV40 (control gene for normalization of transfection efficiency and cell growth; Promega, Fitchburg, Wisconsin, USA; #E2231) and one pFA-CMV-hNR-LBD clone coding for the hinge region and ligand binding domain (LBD) of the human NR of interest. Five hours after transfection, the cells were incubated with the NR3 CG compound candidates at the recommended concentrations by changing the medium to Opti-MEM supplemented with penicillin (100 µ/mL) and streptomycin (100 µg/mL) additionally containing 0.1% DMSO and the respective test compound or 0.1% DMSO alone as untreated control. Firefly (reporter) and renilla (control) luminescence were measured after 14–16 h incubation using the Dual-Glo® Luciferase Assay System (Promega, Fitchburg, Wisconsin, USA; #E2980) according to manufacturer’s protocol on a Tecan Spark® 10M multimode microplate reader (Tecan Group AG, Männedorf, Switzerland). To obtain relative light units (RLU) firefly luminescence was divided by renilla luminescence and multiplied by 1000. Fold activation was obtained by dividing the mean RLU of a test sample by the mean RLU of the DMSO (0.1%) control. Experiments were performed in singlets in at least three biologically independent repeats. […]

[7] = molecular target: T2, NR1I3 (CAR) (Homo sapiens, UniProt Q14994); test: Gal4 hybrid reporter gene assay CAR; type: cell-based; details: n=3
T2 construct: expressed in transfected cells; host or cells: HEK293T
T2 sequence (Q14994 109-352 limits assumed): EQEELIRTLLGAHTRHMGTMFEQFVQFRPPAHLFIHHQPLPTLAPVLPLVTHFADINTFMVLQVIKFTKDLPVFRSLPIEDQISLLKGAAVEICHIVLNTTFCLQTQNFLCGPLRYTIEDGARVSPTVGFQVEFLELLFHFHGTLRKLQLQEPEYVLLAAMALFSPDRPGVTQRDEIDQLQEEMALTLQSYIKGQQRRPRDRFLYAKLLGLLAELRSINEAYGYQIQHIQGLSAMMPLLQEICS
Method: as §1, §2

[8] = compounds at recommended concentrations, n = 5
[9] = 0.3 µM, HEK293T, 24 h, WST-8, normalized to 0.1% DMSO
[10] = 3 µM, HEK293T, 24 h, WST-8, normalized to 0.1% DMSO
[11] = 1 µM, HEK293T, 24 h, WST-8, normalized to 0.1% DMSO

Structure (SMILES): CCCC1O[C@@H]2C[C@H]3[C@@H]4CCC5=CC(=O)C=C[C@]5(C)[C@H]4[C@@H](O)C[C@]3(C)[C@]2(C(=O)CO)O1 (stereo partly shown) [Budesonide]
- Reason for exclusion: number of annotated off-targets [1]: > 5 off-targets
- effects on growth-rate, metabolic activity and necrosis [2]: without relevant effects
- Metabolic activity [MA] ([3]; 0.3 µM, DMSO 0.1% = 1.00): 1.02 and 0.97 and 1.07 and 0.99 and 1.12 and 1.03
- Metabolic activity [MA] ([3]; 3 µM, DMSO 0.1% = 1.00): 0.86 and 0.88 and 1.03 (2×) and 1.13 and 0.99

Structure (SMILES): CC/C(=C(/CC)c1ccc(O)cc1)c1ccc(O)cc1 [Diethylstilbestrol]
- ATF6 activity (tunicamycin-induced endoplasmic reticulum stress) [4, 8]: lacked this effect; also recorded: failed to reduce ATF6 activity
- activity at 0.3 µM ([4]; 0.3 µM): 98%
- activity at 3 µM ([4]; 3 µM): 98% and 101%
- Cytotoxicity in HEK293T cells ([2]; 0.3 µM): non-toxic
- Metabolic activity [MA] [3, 9]: 1.04 (3×) and 0.90 and 0.95 and 1.03 and 0.96 and 1.14
- Metabolic activity [MA] [3, 10]: 0.90 and 0.94 and 1.10 and 1.00 (2×) and 0.60 and 0.78

Structure (SMILES): CC#C[C@]1(O)CC[C@H]2[C@@H]3CCC4=CC(=O)CCC4=C3[C@@H](c3ccc(N(C)C)cc3)C[C@@]21C [Mifepristone]
- activity at 3 µM ([4]; 3 µM): 99%
- Metabolic activity [MA] [3, 10]: 1.08 and 1.01 and 1.00 and 1.09 and 1.04 and 1.03 and 1.16 (2×)

Structure (SMILES): C[C@@H]1Cc2c([nH]c3ccccc23)[C@@H](c2c(F)cc(/C=C/C(=O)O)cc2F)N1CC(C)(C)F [AZD9496]
- activity at 1 µM [4]: 101%
- IC50 [5]: 0.28 ± 0.04 nM
- effects on growth-rate, metabolic activity and necrosis [2]: without relevant effects
- Metabolic activity [MA] [3, 11]: 1.04 (3×) and 1.02 and 0.97 and 0.99 and 1.00 (2×)

Structure (SMILES): COc1ccc(-c2coc3cc(O)cc(O)c3c2=O)cc1 [Biochanin A]
- Reason for exclusion: number of annotated off-targets [1]: > 5 off-targets
- Activity on NR1H3 (LXRα) ([6]; 10 µM): -0.46 mean log10(fold reporter gene activity)
- Activity on NR1I3 (CAR) ([7]; 10 µM): -0.24 mean log10(fold reporter gene activity)
- Metabolic activity [MA] ([3]; 10 µM, DMSO 0.1% = 1.00): 0.87 and 0.81 and 1.01 and 0.90 and 1.15 and 0.98

Structure (SMILES): CCN(CC)c1ccc(/C=N/NC(=O)c2ccc(O)cc2)cc1 [DY131]
- ATF6 activity (tunicamycin-induced endoplasmic reticulum stress) [4, 8]: strongly ameliorated the tunicamycin-induced endoplasmic reticulum stress
- activity at 3 µM ([4]; 3 µM): 25%
- Metabolic activity [MA] [3, 10]: 0.98 and 0.95 (2×) and 0.82 and 0.96 and 0.93 and 0.87 and 0.92

Structure (SMILES): C/C=C1\C(=O)C[C@H]2[C@@H]3CCC4=CC(=O)CC[C@]4(C)[C@H]3CC[C@]12C [Z-Guggulsterone]
- NR off-target at recom. conc. [1]: NR1H4; also recorded: NR1I2; also recorded: NR3A1; also recorded: NR3C1; also recorded: NR3C2
- Reason for exclusion: number of annotated off-targets [1]: > 5 off-targets
- Activity on NR1H3 (LXRα) ([6]; 3 µM): -0.71 mean log10(fold reporter gene activity)
- Activity on NR1I3 (CAR) ([7]; 3 µM): -0.48 mean log10(fold reporter gene activity)
- Metabolic activity [MA] ([3]; 3 µM, DMSO 0.1% = 1.00): 1.00 and 0.94 and 1.08 and 1.06 and 1.18 and 1.15

Structure (SMILES): CC/C(=C(\c1ccc(O)cc1)c1ccc(OCCN(C)C)cc1)c1ccccc1 [(Z)-4-Hydroxytamoxifen]
- Other off-target at recom. conc. [1]: PLD1 and PLD2
- ATF6 activity (tunicamycin-induced endoplasmic reticulum stress) ([4]; 0.3 µM): mediated resolution of the tunicamycin-induced endoplasmic reticulum stress
- ATF6 activity (tunicamycin-induced endoplasmic reticulum stress) ([4]; 3 µM): lacked this effect
- activity at 0.3 µM ([4]; 0.3 µM): 51%
- IC50 [5]: 2 ± 1 nM
- Activity on NR targets outside NR3 family [mean log10(fold reporter gene activity)] NR1I3 (CAR) ([7]; 3 µM, vs. DMSO ctrl): 1.13 log10(fold reporter gene activity)
- Metabolic activity [MA] [3, 9]: 1.00 and 1.02 and 0.89 and 0.98 and 0.96 and 0.95 and 1.06 and 0.84
- Metabolic activity [MA] [3, 10]: 0.88 and 0.94 and 0.92 and 0.98 and 0.96 and 0.89 and 1.00 and 0.84

Structure (SMILES): CC/C(=C(/c1ccc(/C=C/C(=O)O)cc1)c1ccc2[nH]ncc2c1)c1ccc(F)cc1Cl [ARN810]
- NR off-target at recom. conc. [1]: NR3C1; also recorded: NR3C2; also recorded: NR3C3; also recorded: NR3C4
- Other off-target at recom. conc. [1]: GABAA and DAT
- Reason for exclusion: number of annotated off-targets [1]: > 5 off-targets
- IC50 ([5]; (lit.), ref Supplementary Table 1): 6 nM
- rel. activity from literature, NR3A1 (ERα): % ERα remaining ([5]; ERα remaining (degrader), ref Supplementary Table 1): 9%
- Metabolic activity [MA] ([3]; 1 µM, DMSO 0.1% = 1.00): 0.99 and 1.09 and 0.98 and 0.97 and 1.01 and 1.03

Structure (SMILES): Cc1ccc2c(NC[C@](O)(CC(C)(C)c3cc(F)cc4c3OCC4)C(F)(F)F)cccc2n1 [Mapracorat]
- ATF6 activity (tunicamycin-induced endoplasmic reticulum stress) [4, 8]: Consistently weaker ATF6 activity
- activity at 1 µM [4]: 83%
- Activity on NR targets outside NR3 family [mean log10(fold reporter gene activity)] NR1H3 (LXRα) ([6]; 1 µM, vs. DMSO ctrl): -0.38 log10(fold reporter gene activity)
- Metabolic activity [MA] [3, 11]: 1.04 and 1.02 (2×) and 0.95 and 0.98 (2×) and 0.94 and 1.03

Structure (SMILES): COc1cc(/C=C(\C#N)C(=O)Nc2nnc(C(F)(F)F)s2)ccc1OCc1ccc(C(F)(F)F)cc1C(F)(F)F [XCT790]
- ATF6 activity (tunicamycin-induced endoplasmic reticulum stress) [4, 8]: lacked this effect
- activity at 1 µM [4]: 100%
- Metabolic activity [MA] [3, 11]: 1.06 and 0.99 and 0.98 and 1.09 and 1.00 and 1.02 and 1.05 and 1.01
